The target in one experiment is T1, human TGR5 receptor (Homo sapiens, UniProt Q8TDU6).
T1 construct: host or cells: CHO-K1 (hTGR5-CHO)
T1 sequence (Q8TDU6 1-330): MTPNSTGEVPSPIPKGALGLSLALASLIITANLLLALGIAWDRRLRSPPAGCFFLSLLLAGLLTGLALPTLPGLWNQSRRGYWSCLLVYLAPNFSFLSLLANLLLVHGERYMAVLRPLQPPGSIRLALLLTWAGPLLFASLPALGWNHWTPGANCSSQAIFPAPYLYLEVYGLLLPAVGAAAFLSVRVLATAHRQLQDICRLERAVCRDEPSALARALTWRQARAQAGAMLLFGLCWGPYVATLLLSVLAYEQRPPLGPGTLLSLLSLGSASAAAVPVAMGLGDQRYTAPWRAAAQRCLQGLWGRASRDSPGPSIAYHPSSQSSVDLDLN
Nature of the experiment: Human TGR5 cAMP production assay (hTGR5-CHO cells, DiscoveRx cAMP XS+ kit). The experiment is classed as cell-based. The conditions noted are these: luminescent cAMP assay, read-out: Human TGR5 Lum. cAMP Activity (EC50). The procedure, abridged: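 CHO-K1 cells stably expressing hTGR5, in PBS with IBMX and cAMP antibody, treated with half-log compound dilutions for 1 h at room temperature. cAMP measured by enzyme-fragment complementation luminescence after overnight detection; EC50 values reported.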
For orientation: cAMP levels reflect the balance of adenylyl cyclase and phosphodiesterase activity.

Another experiment has as its target T2, mouse TGR5 receptor (Mus musculus, UniProt Q80SS6).
T2 construct: host or cells: HEK293-EBNA (293 c18, ATCC CRL10852)
T2 sequence (Q80SS6 1-329): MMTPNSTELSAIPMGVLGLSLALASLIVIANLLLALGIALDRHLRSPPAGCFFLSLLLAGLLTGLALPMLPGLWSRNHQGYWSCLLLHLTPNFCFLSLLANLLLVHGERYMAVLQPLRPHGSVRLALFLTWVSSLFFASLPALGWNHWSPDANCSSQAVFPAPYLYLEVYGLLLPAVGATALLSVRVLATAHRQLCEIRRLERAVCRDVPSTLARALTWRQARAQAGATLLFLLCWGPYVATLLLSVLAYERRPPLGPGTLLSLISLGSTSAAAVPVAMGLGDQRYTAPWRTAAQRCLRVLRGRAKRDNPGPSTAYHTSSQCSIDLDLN
Nature of the experiment: Mouse TGR5 luminescent cAMP production assay (HEK293-EBNA cells, DiscoveRx cAMP XS+ kit). The experiment is classed as cell-based. The settings on record: HEK293-EBNA cells overexpressing mouse TGR5, luminescent cAMP assay; read-out: Mouse TGR5 Lum. cAMP Activity (EC50). As for the experimental part: Mouse TGR5 cAMP Production Assay
Compounds of the present invention were evaluated for their ability to induce cAMP production in HEK-EBNA cells overexpressing the mouse TGR5 receptor. Human embryonic kidney cells (HEK293-EBNA) stably expressing mouse TGR5 receptor were established using the following procedure. Specifically, a commercially obtained gene encoding mouse TGR5 (accession number BC116914) from Thermo Scientific (Waltham, Mass.) was cloned into an episomal expression vector. The resulting expression plasmid was then transfected into 293 c18 (ATCC® CRL10852™) cells, which express the Epstein-Barr virus nuclear antigen EBNA1 and can support the replication of episomal vectors. Selection for the plasmid was maintained with Hygromycin B. Cells were cultured and maintained in DMEM (Sigma; cat #6429) supplemented with 10% Fetal Bovine Serum, 1% penicillin/streptomycin, 2 mM L-alanine L-glutamine (GlutaMax), and 250 μg/mL Hygromycin.
We developed two cAMP production assays.
(i) Luminescent cAMP Production Assay
In this first cAMP production assay, the cAMP production was measured using DiscoveRx's cAMP XS+ kit following the manufacturer's recommended protocol. Briefly, HEK293-EBNA cells stably overexpressing mouse TGR5 were harvested using non-enzymatic cell dissociation buffer (Sigma-Aldrich, St. Louis, Mo.), spun down, then resuspended in serum-free DMEM with 500 μM IBMX at a density of 1.25×10^6 cells/mL. 500 μL of cAMP antibody solution was added to 500 μL of cell suspension and incubated at room temperature for 20 min.
Test compounds were serially diluted (half-log dilutions) in DMSO and then further diluted 1:50 in PBS, 10 mM HEPES buffer. 2 μL of serially diluted compound was added to a 384-well low volume plate (Greiner cat #784075) and centrifuged briefly. 2 μl of the cell/cAMP antibody mixture was then added to each compound-containing well and allowed to incubate at room temperature for one (1) hour. Following incubation, the XS+ kits' ED/Lysis/CL Substrate Working Solution was prepared following the manufacturer's recommended protocol and 4 μL was added to each well of the plate. The plate was then incubated for one (1) hour at room temperature. Following incubation, 4 μL of (Enzyme Acceptor) EA reagent was added to the plate and allowed to incubate overnight at room temperature. Luminescent signal was then detected using the Viewlux instrument (PerkinElmer, Waltham, Mass.).
In Table 52, EC50 values for both human and mouse cells were determined according to the TGR5 cAMP assays described above. […]

Here are results for 19 molecules from patent publication US10654834B2 (Venenum Biodesign, LLC, priority 2016, dated 2020).

Molecules are shown by their SMILES. Where only a bound is given, the exact number is not on record here.

The term EC50 denotes the concentration needed to bring the measured effect to its halfway point. For `N#Cc1ccc(CCNC(=O)[C@@H]2CCCN2c2cc(-c3ccc(S(=O)(=O)N4CCOCC4)cc3)nc(C(F)(F)F)n2)cc1` [Compound 154, (S)-N-(4-cyanophenethyl)-1-(6-(4-(morpholinosulfonyl)phenyl)-2-(trifluoromethyl)pyrimidin-4-yl)pyrrolidine-2-carboxamide], the EC50 at human TGR5 receptor is 1000 to 30000 nM; on mouse TGR5 receptor it was 100 to 999 nM.

As for `N#Cc1ccc(CCNC(=O)[C@@H]2CCCN2c2cc(-c3ccncc3F)nc(C(F)(F)F)n2)cc1` [Compound 155, (S)-N-(4-cyanophenethyl)-1-(6-(3-fluoropyridin-4-yl)-2-(trifluoromethyl)pyrimidin-4-yl)pyrrolidine-2-carboxamide], the EC50 on human TGR5 receptor and on mouse TGR5 receptor was 100 to 999 nM each time.

In the case of `Cc1noc(C)c1-c1cc(N2CCC[C@H]2C(=O)NCCc2ccc(C#N)cc2)nc(C(F)(F)F)n1` [Compound 156, (S)-N-(4-cyanophenethyl)-1-(6-(3,5-dimethylisoxazol-4-yl)-2-(trifluoromethyl)pyrimidin-4-yl)pyrrolidine-2-carboxamide], the 50% effective concentration (EC50) at human TGR5 receptor and at mouse TGR5 receptor was 1000 to 30000 nM in each case.

In the case of `N#Cc1ccc(CCNC(=O)[C@@H]2CCCN2c2cc(-c3ccc4[nH]ccc4c3)nc(C(F)(F)F)n2)cc1` [Compound 157, (S)-1-(6-(1H-indol-5-yl)-2-(trifluoromethyl)pyrimidin-4-yl)-N-(4-cyanophenethyl)pyrrolidine-2-carboxamide], the EC50 at human TGR5 receptor was 100 to 999 nM; at mouse TGR5 receptor, less than 100 nM.

Consider `N#Cc1ccc(CCNC(=O)[C@@H]2CCCN2c2cc(-c3ccsc3)nc(C(F)(F)F)n2)cc1` [Compound 158, (S)-N-(4-cyanophenethyl)-1-(6-(thiophen-3-yl)-2-(trifluoromethyl)pyrimidin-4-yl)pyrrolidine-2-carboxamide], for which the EC50 on human TGR5 receptor is 100 to 999 nM; on mouse TGR5 receptor, less than 100 nM.

With `COc1cnccc1-c1cc(N2CCC[C@H]2C(=O)NCCc2ccc(C#N)cc2)nc(C(F)(F)F)n1` [Compound 159, (S)-N-(4-cyanophenethyl)-1-(6-(3-methoxypyridin-4-yl)-2-(trifluoromethyl)pyrimidin-4-yl)pyrrolidine-2-carboxamide], the EC50 on human TGR5 receptor is 1000 to 30000 nM; on mouse TGR5 receptor, less than 100 nM.

As to `COc1cc(-c2cc(N3CCC[C@H]3C(=O)NCCc3ccc(C#N)cc3)nc(C(F)(F)F)n2)ccn1` [Compound 160, (S)-N-(4-cyanophenethyl)-1-(6-(2-methoxypyridin-4-yl)-2-(trifluoromethyl)pyrimidin-4-yl)pyrrolidine-2-carboxamide], the EC50 at human TGR5 receptor is 1000 to 30000 nM; at mouse TGR5 receptor, less than 100 nM.

For the molecule `COc1cc(-c2cc(N3CCC[C@H]3C(=O)NCCc3ccc(C#N)cc3)nc(C(F)(F)F)n2)c(Cl)cn1` [Compound 161, (S)-1-(6-(5-chloro-2-methoxy-pyridin-4-yl)-2-(trifluoromethyl)pyrimidin-4-yl)-N-(4-cyanophenethyl)pyrrolidine-2-carboxamide], the EC50 at human TGR5 receptor was 1000 to 30000 nM; on mouse TGR5 receptor it was less than 100 nM.

Take `N#Cc1ccc(CCNC(=O)[C@@H]2CCCN2c2cc(-c3ccccn3)nc(C(F)(F)F)n2)cc1` [Compound 162, (S)-N-(4-cyanophenethyl)-1-(6-(pyridin-2-yl)-2-(trifluoromethyl)pyrimidin-4-yl)pyrrolidine-2-carboxamide]: the EC50 at human TGR5 receptor and on mouse TGR5 receptor was 100 to 999 nM throughout.

With `O=C(NCCc1ccc(C(F)(F)F)cc1)[C@@H]1CCCN1c1cc(-c2ccccn2)nc(C(F)(F)F)n1` [Compound 163, (S)-1-(6-(pyridin-2-yl)-2-(trifluoromethyl)pyrimidin-4-yl)-N-(4-(trifluoromethyl)phenethyl)-pyrrolidine-2-carboxamide], the EC50 at human TGR5 receptor fell in the range of 100 to 999 nM; on mouse TGR5 receptor, 1000 to 30000 nM.

`N#Cc1ccc(CCNC(=O)[C@@H]2CCCN2c2cc(-c3ccoc3)nc(C(F)(F)F)n2)cc1` [Compound 164, (S)-N-(4-cyanophenethyl)-1-(6-(furan-3-yl)-2-(trifluoromethyl)pyrimidin-4-yl)pyrrolidine-2-carboxamide]: the EC50 on human TGR5 receptor was in the range of 1000 to 30000 nM; on mouse TGR5 receptor, 100 to 999 nM.

Consider `N#Cc1ccc(CCNC(=O)[C@@H]2CCCN2c2cc(-c3cccs3)nc(C(F)(F)F)n2)cc1` [Compound 165, (S)-N-(4-cyanophenthyl)-1-(6-(thiophene-2-yl)-2-(trifluoromethyl)pyrimidin-4-yl)pyrrolidine-2-carboxamide], for which the EC50 at human TGR5 receptor and at mouse TGR5 receptor was 100 to 999 nM in each case.

`Cc1ccc(-c2cc(N3CCC[C@H]3C(=O)NCCc3ccc(C#N)cc3)nc(C(F)(F)F)n2)o1` [Compound 166, (S)-N-(4-cyanophenethyl)-1-(6-(5-methylfuran-2-yl)-2-(trifluoromethyl)pyrimidin-4-yl)pyrrolidine-2-carboxamide]: the EC50 at human TGR5 receptor and at mouse TGR5 receptor was 100 to 999 nM throughout.

On to `N#Cc1ccc(CCNC(=O)[C@@H]2CCCN2c2cc(-c3ccco3)nc(C(F)(F)F)n2)cc1` [Compound 167, (S)-N-(4-cyanophenethyl)-1-(6-(furan-2-yl)-2-(trifluoromethyl)pyrimidin-4-yl)pyrrolidine-2-carboxamide], for which the EC50 at human TGR5 receptor lay within 1000 to 30000 nM; on mouse TGR5 receptor, 100 to 999 nM.

Consider `N#Cc1ccc(CCNC(=O)[C@@H]2CCCN2c2cc(-c3ccc(CN4CCOCC4)s3)nc(C(F)(F)F)n2)cc1` [Compound 168, (S)-N-(4-cyanophenethyl)-1-(6-(5-(morpholinomethyl)thiophen-2-yl)-2-(trifluoromethyl)pyrimidin-4-yl)pyrrolidine-2-carboxamide], for which the EC50 on human TGR5 receptor fell in the range of 1000 to 30000 nM; on mouse TGR5 receptor it was 100 to 999 nM.

On to `Cn1ccc2cc(-c3cc(N4CCC[C@H]4C(=O)NCCc4ccc(C#N)cc4)nc(C(F)(F)F)n3)ccc21` [Compound 169, (S)-N-(4-cyanophenethyl)-1-(6-(1-methyl-1H-indol-5-yl)-2-(trifluoromethyl)pyrimidin-4-yl)pyrrolidine-2-carboxamide], for which the EC50 was in the range of 1000 to 30000 nM at human TGR5 receptor and 100 to 999 nM at mouse TGR5 receptor.

On to `N#Cc1ccc(CCNC(=O)[C@@H]2CCCN2c2cc(-c3csc(C(=O)O)c3)nc(C(F)(F)F)n2)cc1` [Compound 178, (S)-4-(6-(2-((4-cyanophenethyl)carbamoyl)pyrrolidin-1-yl)-2-(trifluoromethyl)pyrimidin-4-yl)thiophene-2-carboxylic acid], for which the EC50 is 1000 to 30000 nM at human TGR5 receptor and less than 100 nM on mouse TGR5 receptor.

Turning to `CNC(=O)c1cc(-c2cc(N3CCC[C@H]3C(=O)NCCc3ccc(C#N)cc3)nc(C(F)(F)F)n2)cs1` [Compound 179, (S)—N-(4-cyanophenethyl)-1-(6-(5-(methylcarbamoyl)thiophen-3-yl)-2-(trifluoromethyl)pyrimidin-4-yl)pyrrolidine-2-carboxamide], the half-maximal effective concentration (EC50) on human TGR5 receptor and at mouse TGR5 receptor was 1000 to 30000 nM throughout.

`N#Cc1ccc(CCNC(=O)[C@@H]2CCCN2c2cc(-c3ccc(CN)cc3)nc(C(F)(F)F)n2)cc1` [Compound 185, (S)-1-(6-(4-(aminomethyl)phenyl)-2-(trifluoromethyl)pyrimidin-4-yl)-N-(4-cyanophenethyl)pyrrolidine-2-carboxamide]: the EC50 on human TGR5 receptor and on mouse TGR5 receptor was 100 to 999 nM in each case.
